Assay results taken from article PMC10447463, “Data-mining unveils structure–property–activity correlation of viral infectivity enhancing self-assembling peptides” (Nature Communications, 2023).
Like-named read-outs stand apart in the source and are kept apart here.

Legend:
[1] = Conversion rate (CR) assay with fluorescamine; format: physicochemical; design: key to CR: % = 100−100×filtrate/original fluorescence intensity; conditions: conversion rate, fluorescamine assay; for CR / %: Fig. S7 panel B
Protocol: For ATR FT–IR spectroscopy measurements, 200 µL of the respective 1 mg/mL PNF solution was lyophilized and the resulting powder used for measurement. All spectra were recorded on a Bruker Tensor 27 spectrometer with a diamond crystal as ATR element (PIKE MiracleTM, spectral resolution 2 cm^-1). Every sample was measured with 64 scans. Data were analyzed with OriginLab software and calculation of β–sheet content was conducted according to a previous report. TEM. For TEM measurements 5 µL of PNF fibrils (1 mg/mL) were placed on copper grids coated with carbon and formvar layer (300 mesh, Plano GmbH). After 10 min incubation time, the grids were staining with 4% uranyl acetate solution for 2.5 min and washed with water. Measurements were performed on a Jeol 1400 electron microscope with 120 kV acceleration voltage. CR Assay. For the determination of the amount of peptide monomer converting into nanostructures the amine reactive dye fluorescamine was used analogous to a previous reported protocol. Briefly, 100 µL of the preformed PNF solution was centrifuged in a Vivaspin 500 tube (3 kDa MWCO) to separate fibers from free peptide monomer (16200 x g, 4 °C, 45 min). The filtrate and 100 μL of the non-filtered PNF sample were lyophilized and dissolved in 30 μL DMSO. 10 μL of the filtrate and non-filtered DMSO samples were submitted in a black UV Star® 384 microliter well–plates (Greiner bio–one) and 3 μL of the fluorescamine solution (10 mg/mL, DMSO) was added to measure the fluorescence enhancement. After 20 min of incubation at RT, fluorescence was recorded on an Infinite® M1000 PRO microplate reader (Tecan) at λem = 470 nm upon excitation at λex = 365 nm with 10 nm bandwidths and multiple reads per well (3×3). Measurements were repeated in triplicates and averaged with standard deviation. All values were calculated as n-fold fluorescence enhancement (DMSO only as a reference was set to 1). The conversion rate CR was defined according to the equation Eq. (3).3 CR=100−100×fluorescenceintensityfiltrate/fluorescenceintensityoriginal[%]

[2] = format: physicochemical; conditions: for ThT Cat. / ThT-Fluorescence (categorical): ThT-active if fluorescence at least twice the control
How it was run: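 Preformed peptide fibrils (1 mg/mL) mixed with 50 µM ThT in PBS, 15 min at RT, fluorescence ex 440/em 488 nm versus PBS blank, triplicates. Zeta potential: peptides at 1 mg/mL in PBS pH 7.4, aged 1 d at RT, diluted in 1 mM KCl, Smoluchowski from electrophoretic mobility.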

[3] = ThT fluorescence category, 1 if Rel. ThT >2

| Substance | CR / % [1] | CR [1] | Tht category (> 2 to blank = +) ([2]; Fig S10 panel D) | ThT Cat. ([2]; Fig S10 panel E) | Tht category (> 2 to blank = +) ([2]; FigS12 panel A) | ThT Cat, ([2]; FigS12 panel B) | ThT Cat, ([2]; ThT category, 1 if Rel. ThT >2) | ThT Cat. ([2]; ThT category, 1 if Rel. ThT >2) | ThT Cat. / ThT-Fluorescence (categorical) [2] | ThT Cat. [2, 3] |
| --- | --- | --- | --- | --- | --- | --- | --- | --- | --- | --- |
| EIKIQINM | 50.7% | 50.72 | 1 (ThT. Cat is 1, if Rel. ThT >2) | 1 (ThT. Cat is 1, if Rel. ThT >2) | 1 (ThT. Cat is 1, if Rel. ThT >2) | 1 (ThT. Cat is 1, if Rel. ThT >2) | 1 (ThT. Cat is 1, if Rel. ThT >2) | 1 (ThT. Cat is 1, if Rel. ThT >2) | 1 (ThT. Cat is 1, if Rel. ThT >2) |  |
| CKIKQII | 55% | 55 | 1 (ThT. Cat is 1, if Rel. ThT >2) | 1 (ThT. Cat is 1, if Rel. ThT >2) | 1 (ThT. Cat is 1, if Rel. ThT >2) | 1 (ThT. Cat is 1, if Rel. ThT >2) | 1 (ThT. Cat is 1, if Rel. ThT >2) |  | 1 (ThT. Cat is 1, if Rel. ThT >2) | 1 (ThT. Cat is 1, if Rel. ThT >2) |
| RGDSGGGGGGKIKIQIC | 54.7% | 54.68 | 1 (ThT. Cat is 1, if Rel. ThT >2) | 1 (ThT. Cat is 1, if Rel. ThT >2) |  |  | 1 (ThT. Cat is 1, if Rel. ThT >2) |  | 1 (ThT. Cat is 1, if Rel. ThT >2) | 1 (ThT. Cat is 1, if Rel. ThT >2) |
| KIKIKIQI | 80% | 80 | 1 (ThT. Cat is 1, if Rel. ThT >2) | 1 (ThT. Cat is 1, if Rel. ThT >2) | 1 (ThT. Cat is 1, if Rel. ThT >2) | 1 (ThT. Cat is 1, if Rel. ThT >2) | 1 (ThT. Cat is 1, if Rel. ThT >2) |  | 1 (ThT. Cat is 1, if Rel. ThT >2) | 1 (ThT. Cat is 1, if Rel. ThT >2) |
| KFKFKFQF | 94% | 94 | 1 (ThT. Cat is 1, if Rel. ThT >2) | 1 (ThT. Cat is 1, if Rel. ThT >2) |  |  | 1 (ThT. Cat is 1, if Rel. ThT >2) |  | 1 (ThT. Cat is 1, if Rel. ThT >2) | 1 (ThT. Cat is 1, if Rel. ThT >2) |
| CKIW | 48.3% | 48.26 | 0 (ThT-inactive (N-Fold <2)) | 0 (ThT-inactive (N-Fold <2)) | 0 (ThT-inactive (N-Fold <2)) | 0 (ThT-inactive (N-Fold <2)) | 0 (ThT-inactive (N-Fold <2)) | 0 (ThT-inactive (N-Fold <2)) | 0 (ThT-inactive (N-Fold <2)) |  |
| CSISIQINM | 86% | 86 | 1 (ThT. Cat is 1, if Rel. ThT >2) | 1 (ThT. Cat is 1, if Rel. ThT >2) |  |  | 1 (ThT. Cat is 1, if Rel. ThT >2) |  | 1 (ThT. Cat is 1, if Rel. ThT >2) | 1 (ThT. Cat is 1, if Rel. ThT >2) |
| CEFEFQFNMWQ | 98.6% | 98.63 | 1 (ThT. Cat is 1, if Rel. ThT >2) | 1 (ThT. Cat is 1, if Rel. ThT >2) |  |  | 1 (ThT. Cat is 1, if Rel. ThT >2) |  | 1 (ThT. Cat is 1, if Rel. ThT >2) | 1 (ThT. Cat is 1, if Rel. ThT >2) |
| RGDSKIKIQIC | 43.4% | 43.38 | 1 (ThT. Cat is 1, if Rel. ThT >2) | 1 (ThT. Cat is 1, if Rel. ThT >2) |  |  | 1 (ThT. Cat is 1, if Rel. ThT >2) |  | 1 (ThT. Cat is 1, if Rel. ThT >2) | 1 (ThT. Cat is 1, if Rel. ThT >2) |
| RGDKIKIQINMWQ | 66% | 66 | 0 (ThT-inactive (N-Fold <2)) | 0 (ThT-inactive (N-Fold <2)) |  |  | 0 (ThT-inactive (N-Fold <2)) |  | 0 (ThT-inactive (N-Fold <2)) | 0 (ThT-inactive (N-Fold <2)) |
| CKFKQFFNMWQ | 98.7% | 98.72 | 1 (ThT. Cat is 1, if Rel. ThT >2) | 1 (ThT. Cat is 1, if Rel. ThT >2) |  |  | 1 (ThT. Cat is 1, if Rel. ThT >2) | 1 (ThT. Cat is 1, if Rel. ThT >2) | 1 (ThT. Cat is 1, if Rel. ThT >2) |  |
